Source: US20240344035A1, “Culture Medium and Culture Method for Human Primary Acute Myeloid Leukemia Cells” (PRECEDO PHARMACEUTICALS CO., LTD, priority 2021, published 2024)

Key:
Format in all cases: cell-based
[1] = system: human primary acute myeloid leukemia cells; assay: Effect of single added factors in Basal Medium on proliferation (CCK-8); settings: additive at the listed final concentration in Basal Medium; samples A17007, A25104; 5 to 8 days; CCK-8, 450 nm; versus Basal Medium
Protocol: First, the Basal Medium was prepared. The formulation of the Basal Medium was monocyte serum-free medium (purchased from BI, 05-080-1A)+10% (v/v) fetal bovine serum (purchased from ExCell Bio, FND500)+100 μg/mL Primocin (purchased from InvivoGen, 0.2% (v/v), the commercial product concentration is 50 mg/mL).
Different types of growth factors (see Table 1) were added to the Basal Medium to prepare culture mediums for human primary acute myeloid leukemia cells containing different added components.
The culture mediums of different compositions in Table 1 were added into a 96-well plate in a volume of 100 μL/well. Human primary acute myeloid leukemia cells isolated from two cases of human primary acute myeloid leukemia bone marrow samples (numbered A17007, A25104, from the First Affiliated Hospital of Anhui Medical University) according to the above step (2) were inoculated in the 96-well culture plate at a density of 1×10^4 cells/well and cultured at 37° C. and 5% […]. After 5 to 8 days of culture, the cells grew to 70% to 85%, and 10 μL of Cell Counting Kit-8 (CCK-8, purchased from MCE) was added to each well and incubated at 37° C. and 5% CO2 for 2 to 4 hours. The substances in each well were mixed, and the plate was read using a multifunctional microplate reader (Multi-Mode Detection Platform, American Molecular Instruments (Shanghai) Co., Ltd.) at 450 nm. The Basal Medium without addition of any additive was used as a control.

[2] = system: human primary acute myeloid leukemia cells; assay: Effect of combinations of added factors on proliferation (viable cell counting, FIG. 1); settings: six bone marrow samples
Protocol: The culture mediums for human primary acute myeloid leukemia cells containing different combinations of added factors were prepared according to the components in Table 2, to investigate the proliferation-promoting effects of different added factor combinations on human primary acute myeloid leukemia cells.
Human primary acute myeloid leukemia cells were obtained from human primary acute myeloid leukemia bone marrow samples (numbered A17151, A17152, A20090, A20101, A21004, A20141) according to the process of step (2)-3 of Example 1. The obtained cell suspension was divided into 11 equal parts, which were then centrifuged at 1500 rpm for 4 minutes. After centrifugation, the cells were resuspended with 200 μL BM or No. 1 to 10 culture medium, respectively, and inoculated into a 48-well plate at a viable cell density of 2×10^4 cells/well (20,000 cells per well). Each well in the 48-well plate was supplemented to a volume of 1 mL with the corresponding culture mediums, and the resultant was fully mixed. After surface disinfection, the plate was placed in a 37° C., 5% CO2 incubator (purchased from Thermo Fisher) for culture.
The cells in the 48-well plate grew to more than 85% and were transferred to a 15 mL centrifuge tube which was then centrifuged at 1500 rpm for 5 minutes. 500 μL of monocyte serum-free medium was added to the centrifuge tube to resuspend the cell pellet. 12 μL of the resuspended cell suspension was fully mixed with 12 μL of trypan blue dye (Sangon Biotech (Shanghai) Co., Ltd.), and then 20 μL of the mixture was added into a cell counting plate (Countstar, specifications: 50 pieces/box). The percentage of viable large cells (cell size>10 μm) were calculated using a cell counter (Countstar, IC1000) (percentage of viable large cells (cell size>10 μm)=number of viable cells/total number of cells*100%). The results obtained from human primary acute myeloid leukemia cells of bone marrow samples A17151, A17152, A20090, A20101, A21004, and A20141 are shown in FIG. 1.

[3] = system: human primary acute myeloid leukemia cells; assay: Proliferative effects of different concentrations of added factors (ratio to Blank Control, FIGS. 2A-2H); settings: for concentration at which the cell proliferation effect is most significant: five concentrations tested; for proliferation-promoting effect of the factor: samples A23065, A17112, factor added back to formulation lacking it
Protocol: Human primary acute myeloid leukemia cells were obtained from human primary acute myeloid leukemia bone marrow samples (numbered A23065, A17112) according to the process of step (2)-3 of Example 1. The cells were resuspended with Basal Medium (monocyte serum-free medium+10% (v/v) fetal bovine serum+100 μg/mL Primocin) for later use.
20 μl of cell suspension containing 4×10^4 cells was added to each well, and the suspension was diluted with 1 mL medium of the above Formulations 1-8, respectively.
(§1) When using the culture medium of Formulation 1, the prepared glutamine additive was added respectively to a 48-well plate inoculated with primary cells, with 1 mL per well, and the final concentration of glutamine additive was 0.5 mM, 1 mM, 2 mM, 4 mM, 8 mM, respectively; a well of Blank Control (BC) was set using the culture medium of Formulation 1.
as §1, with “2,” for “1,”, “human SCF” for “glutamine additive”, “was” for “was 0.5 mM,”, “ng/mL, 3 ng/mL, 9 ng/mL, 27 ng/mL, 81 ng/mL,” for “mM, 2 mM, 4 mM, 8 mM,”, “2.” for “1.”
as §1, with “5,” for “1,”, “human FLT3L” for “glutamine additive”, “was” for “was 0.5 mM,”, “ng/mL, 3 ng/mL, 9 ng/mL, 27 ng/mL, 81 ng/mL,” for “mM, 2 mM, 4 mM, 8 mM,”, “5.” for “1.”
When using the culture medium of Formulation 6, the prepared non-essential amino acids were added respectively to a 48-well plate inoculated with primary cells, with 1 mL per well, and the final concentration of non-essential amino acids was 12.5 µM, 25 µM, 50 µM, 100 µM, 200 µM, respectively; a well of Blank Control (BC) was set using the culture medium of Formulation 6.
as §1, with “8,” for “1,”, “human M-CSF” for “glutamine additive”, “was” for “was 0.5 mM,”, “ng/mL, 3 ng/mL, 9 ng/mL, 27 ng/mL, 81 ng/mL,” for “mM, 2 mM, 4 mM, 8 mM,”, “8.” for “1.”
In FIGS. 2A to 2H, the ratio is a ratio of the number of cells of the first passage cultured by using each culture medium to the number of cells of the first passage cultured in the corresponding well of Blank Control.

C[C@@H](N)[C@H]1CC[C@H](C(=O)Nc2ccncc2)CC1 [Y-27632, reference compound]
Level of promoting cell proliferation [1]: −

human interleukin-5 [human IL-5]
Level of promoting cell proliferation [1]: −

human interleukin-6 [human IL-6]
Level of promoting cell proliferation [1]: +
proliferation-promoting effect of the factor (omission from No. 1 medium) [2]: significantly promote the proliferation
concentration at which the cell proliferation effect is most significant [3]: 5.67 ng/mL
proliferation-promoting effect of the factor [3]: significant proliferation-promoting effect

human interleukin-7 [human IL-7]
Level of promoting cell proliferation [1]: +
proliferation-promoting effect of the factor (omission from No. 1 medium) [2]: significantly promote the proliferation
concentration at which the cell proliferation effect is most significant [3]: 17 ng/mL
proliferation-promoting effect of the factor [3]: significant proliferation-promoting effect

human leukocyte interferon [human IFN-α]
Level of promoting cell proliferation [1]: +

human stem cell factor [human SCF]
Level of promoting cell proliferation [1]: +
proliferation-promoting effect of the factor (omission from No. 1 medium) [2]: significantly promote the proliferation
concentration at which the cell proliferation effect is most significant [3]: 9 ng/mL
proliferation-promoting effect of the factor [3]: significant proliferation-promoting effect

human thrombopoietin [human TPO]
Level of promoting cell proliferation [1]: −

B1: recombinant human FLT3 Ligand (protein, UniProt P49771 27-235, looked up)
Fms-related tyrosine kinase 3 …: TQDCSFQHSPISSDFAVKIRELSDYLLQDYPVTVASNLQDEELCGGLWRLVLAQRWMERLKTVAGSKMQGLLERVNTEIHFVTKCAFQPPPSCLRFVQTNISRLLQETSEQLVALKPWITRQNFSRCLELQCQPDSSTLPPPWSPRPLEATAPTAPQPPLLLLLLLPVGLLLLAAAWCLHWQRTRRRTPRPGEQVPPVPSPQDLLLVEH
notes: growth factor additive from Sino Biological
Level of promoting cell proliferation [1]: +
proliferation-promoting effect of the factor (omission from No. 1 medium) [2]: significantly promote the proliferation
concentration at which the cell proliferation effect is most significant [3]: 27 ng/mL
proliferation-promoting effect of the factor [3]: significant proliferation-promoting effect

B2: recombinant human macrophage colony-stimulating factor (protein, UniProt P09603 33-554, looked up)
Macrophage colony-stimulating …: EEVSEYCSHMIGSGHLQSLQRLIDSQMETSCQITFEFVDQEQLKDPVCYLKKAFLLVQDIMEDTMRFRDNTPNAIAIVQLQELSLRLKSCFTKDYEEHDKACVRTFYETPLQLLEKVKNVFNETKNLLDKDWNIFSKNCNNSFAECSSQDVVTKPDCNCLYPKAIPSSDPASVSPHQPLAPSMAPVAGLTWEDSEGTEGSSLLPGEQPLHTVDPGSAKQRPPRSTCQSFEPPETPVVKDSTIGGSPQPRPSVGAFNPGMEDILDSAMGTNWVPEEASGEASEIPVPQGTELSPSRPGGGSMQTEPARPSNFLSASSPLPASAKGQQPADVTGTALPRVGPVRPTGQDWNHTPQKTDHPSALLRDPPEPGSPRISSLRPQGLSNPSTLSAQPQLSRSHSSGSVLPLGELEGRRSTRDRRSPAEPEGGPASEGAARPLPRFNSVPLTDTGHERQSEGSFSPQLQESVFHLLVPSVILVLLAVGGLLFYRWRRRSHQEPQRADSPLEQPEGSPLTQDDRQVELPV
notes: as for B1
Level of promoting cell proliferation [1]: +
proliferation-promoting effect of the factor (omission from No. 1 medium) [2]: significantly promote the proliferation
concentration at which the cell proliferation effect is most significant [3]: 27 ng/mL
proliferation-promoting effect of the factor [3]: significant proliferation-promoting effect

B3: human interleukin-22 (protein, UniProt Q9GZX6 34-179, looked up)
Interleukin-22: APISSHCRLDKSNFQQPYITNRTFMLAKEASLADNNTDVRLIGEKLFHGVSMSERCYLMKQVLNFTLEEVLFPQSDRFQPYMQEVVPFLARLSNRLSTCHIEGDDLHIQRNVQKLKDTVKKLGESGEIKAIGELDLLFMSLRNACI
notes: cytokine additive from Peprotech
Level of promoting cell proliferation [1]: −

B4: human interleukin-4 (protein, UniProt P05112 25-153, looked up)
Interleukin-4: HKCDITLQEIIKTLNSLTEQKTLCTELTVTDIFAASKNTTEKETFCRAATVLRQFYSHHEKDTRCLGATAQQFHRHKQLIRFLKRLDRNLWGLAGLNSCPVKEANQSTLENFLERLKTIMREKYSKCSS
notes: cytokine additive from Sino Biological
Level of promoting cell proliferation [1]: −

B5: human interleukin-10 (protein, UniProt P22301 19-178, looked up)
Interleukin-10: SPGQGTQSENSCTHFPGNLPNMLRDLRDAFSRVKTFFQMKDQLDNLLLKESLLEDFKGYLGCQALSEMIQFYLEEVMPQAENQDPDIKAHVNSLGENLKTLRLRLRRCHRFLPCENKSKAVEQVKNAFNKLQEKGIYKAMSEFDIFINYIEAYMTMKIRN
notes: as for B4
Level of promoting cell proliferation [1]: −

B6: human interleukin-11 (protein, UniProt P20809 22-199, looked up)
Interleukin-11: PGPPPGPPRVSPDPRAELDSTVLLTRSLLADTRQLAAQLRDKFPADGDHNLDSLPTLAMSAGALGALQLPGVLTRLRADLLSYLRHVQWLRRAGGSSLKTLEPELGTLQARLDRLLRRLQLLMSRLALPQPPPDPPAPPLAPPSSAWGGIRAAHAILGGLHLTLDWAVRGLLLLKTRL
notes: as for B4
Level of promoting cell proliferation [1]: −

B7: human granulocyte colony stimulating factor (protein, UniProt P09919 31-207, looked up)
Granulocyte …: TPLGPASSLPQSFLLKCLEQVRKIQGDGAALQEKLVSECATYKLCHPEELVLLGHSLGIPWAPLSSCPSQALQLAGCLSQLHSGLFLYQGLLQALEGISPELGPTLDTLQLDVADFATTIWQQMEELGMAPALQPTQGAMPAFASAFQRRAGGVLVASHLQSFLEVSYRVLRHLAQP
notes: as for B1
Level of promoting cell proliferation [1]: −
